Converted amounts (≈) assume the structure as drawn.
Tests used:
Enterobacteriaceae [1] = experiment: Antimicrobial activity against ceftazidime-susceptible Enterobacteriaceae by broth microdilution method; type: functional
Enterobacteriaceae [2] = experiment: Antimicrobial activity against Ceftazidime non-susceptible Enterobacteriaceae by broth microdilution method; type: functional
Enterobacteriaceae [3] = experiment: Antimicrobial activity against ceftazidime-susceptible Enterobacteriaceae assessed as susceptible isolate by broth microdilution method; type: functional
Escherichia coli [4] = experiment: Antimicrobial activity against Non-ESBL Escherichia coli assessed as susceptible isolate by broth microdilution method; type: functional
Escherichia coli [5] = experiment: Antimicrobial activity against ESBL producing Escherichia coli assessed as susceptible isolate by broth microdilution method; type: functional
Klebsiella pneumoniae [6] = experiment: Antimicrobial activity against Non-ESBL Klebsiella pneumoniae assessed as susceptible isolate by broth microdilution method; type: functional
Klebsiella pneumoniae [7] = experiment: Antimicrobial activity against ESBL producing Klebsiella pneumoniae assessed as susceptible isolate by broth microdilution method; type: functional
Proteus mirabilis [8] = experiment: Antimicrobial activity against Proteus mirabilis by broth microdilution method; type: functional
Proteus mirabilis [9] = experiment: Antimicrobial activity against Proteus mirabilis assessed as susceptible isolate by broth microdilution method; type: functional
Pseudomonas aeruginosa [10] = experiment: Antimicrobial activity against Pseudomonas aeruginosa isolated from non-ICU patient by broth microdilution method; type: functional
Pseudomonas aeruginosa [11] = experiment: Antimicrobial activity against Pseudomonas aeruginosa isolated from ICU patient by broth microdilution method; type: functional
Proteus mirabilis [12] = experiment: Antimicrobial activity against ESBL producing Proteus mirabilis assessed as susceptible isolate by broth microdilution method; type: functional
Enterobacter cloacae [13] = experiment: Antimicrobial activity against Enterobacter cloacae by broth microdilution method; type: functional
Enterobacter cloacae [14] = experiment: Antimicrobial activity against Enterobacter cloacae with nonderepressed AmpC beta-lactamsae by broth microdilution method; type: functional
Enterobacter cloacae [15] = experiment: Antimicrobial activity against Enterobacter cloacae assessed as susceptible isolate by broth microdilution method; type: functional
Enterobacter cloacae [16] = experiment: Antimicrobial activity against Enterobacter cloacae with derepressed AmpC beta-lactamsae assessed as susceptible isolate by broth microdilution method; type: functional
Citrobacter [17] = experiment: Antimicrobial activity against Citrobacter with derepressed AmpC beta-lactamsae by broth microdilution method; type: functional
Serratia marcescens [18] = experiment: Antimicrobial activity against Ceftazidime susceptible Serratia marcescens assessed as susceptible isolate by broth microdilution method; type: functional
Serratia marcescens [19] = experiment: Antimicrobial activity against Ceftazidime non-susceptible Serratia marcescens assessed as susceptible isolate by broth microdilution method; type: functional
Pseudomonas aeruginosa [20] = experiment: Antimicrobial activity against Ceftazidime non-susceptible Pseudomonas aeruginosa by broth microdilution method; type: functional
Pseudomonas aeruginosa [21] = experiment: Antimicrobial activity against imipenem non-susceptible Pseudomonas aeruginosa assessed as susceptible isolate by broth microdilution method; type: functional
Acinetobacter [22] = experiment: Antimicrobial activity against imipenem non-susceptible Acinetobacter by broth microdilution method; type: functional
Acinetobacter [23] = experiment: Antimicrobial activity against Acinetobacter assessed as susceptible isolate by broth microdilution method; type: functional
Acinetobacter [24] = experiment: Antimicrobial activity against imipenem susceptible Acinetobacter assessed as susceptible isolate by broth microdilution method; type: functional
Acinetobacter [25] = experiment: Antimicrobial activity against imipenem non-susceptible Acinetobacter assessed as susceptible isolate by broth microdilution method; type: functional
Staphylococcus aureus = experiment: Antimicrobial activity against methicillin-resistant Staphylococcus aureus by broth microdilution method; type: functional
Staphylococcus = experiment: Antimicrobial activity against methicillin-susceptible coagulase-negative Staphylococcus by broth microdilution method; type: functional; settings: Staphylococcus
Streptococcus pneumoniae = experiment: Antimicrobial activity against penicillin-intermediate Streptococcus pneumoniae by broth microdilution method; type: functional
Pseudomonas aeruginosa [26] = experiment: Antimicrobial activity against Pseudomonas aeruginosa isolated from non-ICU patient by broth microdilution method
Pseudomonas aeruginosa [27] = experiment: Antimicrobial activity against Pseudomonas aeruginosa isolated from ICU patient assessed as susceptible isolate by broth microdilution method
Enterobacteriaceae [28] = experiment: Antimicrobial activity against ceftazidime-susceptible Enterobacteriaceae assessed as intermediate isolate by broth microdilution method; type: functional
Enterobacteriaceae [29] = experiment: Antimicrobial activity against Ceftazidime non-susceptible Enterobacteriaceae assessed as intermediate isolate by broth microdilution method; type: functional
Escherichia coli [30] = experiment: Antimicrobial activity against Non-ESBL Escherichia coli assessed as intermediate isolate by broth microdilution method; type: functional
Klebsiella pneumoniae [31] = experiment: Antimicrobial activity against Non-ESBL Klebsiella pneumoniae assessed as intermediate isolate by broth microdilution method; type: functional
Klebsiella pneumoniae [32] = experiment: Antimicrobial activity against ESBL producing Klebsiella pneumoniae assessed as resistant isolate by broth microdilution method; type: functional
Proteus mirabilis [33] = experiment: Antimicrobial activity against Non-ESBL Proteus mirabilis assessed as resistant isolate by broth microdilution method; type: functional
Proteus mirabilis [34] = experiment: Antimicrobial activity against ESBL producing Proteus mirabilis assessed as intermediate isolate by broth microdilution method; type: functional
Citrobacter [35] = experiment: Antimicrobial activity against Citrobacter with nonderepressed AmpC beta-lactamsae assessed as intermediate isolate by broth microdilution method; type: functional
Citrobacter [36] = experiment: Antimicrobial activity against Citrobacter with derepressed AmpC beta-lactamsae assessed as intermediate isolate by broth microdilution method; type: functional
Serratia marcescens [37] = experiment: Antimicrobial activity against Ceftazidime non-susceptible Serratia marcescens assessed as intermediate isolate by broth microdilution method; type: functional
Pseudomonas aeruginosa [38] = experiment: Antimicrobial activity against imipenem susceptible Pseudomonas aeruginosa assessed as intermediate isolate by broth microdilution method; type: functional
Pseudomonas aeruginosa [39] = experiment: Antimicrobial activity against imipenem non-susceptible Pseudomonas aeruginosa assessed as intermediate isolate by broth microdilution method; type: functional
Acinetobacter [40] = experiment: Antimicrobial activity against imipenem non-susceptible Acinetobacter assessed as intermediate isolate by broth microdilution method; type: functional
Acinetobacter [41] = experiment: Antimicrobial activity against imipenem non-susceptible Acinetobacter assessed as resistant isolate by broth microdilution method; type: functional
Pseudomonas aeruginosa [42] = experiment: Antimicrobial activity against Pseudomonas aeruginosa isolated from ICU patient assessed as intermediate isolate by broth microdilution method
Pseudomonas aeruginosa [43] = experiment: Antimicrobial activity against Pseudomonas aeruginosa isolated from non-ICU patient assessed as resistant isolate by broth microdilution method

What does the source list for `C[C@@H](O)[C@H]1C(=O)N2C(C(=O)O)=C(S[C@@H]3CN[C@H](CNS(N)(=O)=O)C3)[C@H](C)[C@H]12` [DORIPENEM]?
MIC50 (Enterobacteriaceae [1]): 0.03 µg/mL (≈ 0.0713 µM); MIC90 (Enterobacteriaceae [1]): 0.12 µg/mL (≈ 0.285 µM); MIC50 (Enterobacteriaceae [2]): 0.06 µg/mL (≈ 0.143 µM); MIC90 (Enterobacteriaceae [2]): 0.25 µg/mL (≈ 0.595 µM); Activity (Enterobacteriaceae [3]): 99.7%; Activity (Escherichia coli [4]): 99.8%; Activity (Escherichia coli [5]): 100%; Activity (Klebsiella pneumoniae [6]): 99.7%; Activity (Klebsiella pneumoniae [7]): 95.5%; MIC50 (Proteus mirabilis [8]): 0.12 µg/mL (≈ 0.285 µM); MIC90 (Proteus mirabilis [8]): 0.5 µg/mL (≈ 1.19 µM); Activity (Proteus mirabilis [9]): 98.9%; MIC50 (Pseudomonas aeruginosa [10]): 0.25 µg/mL (≈ 0.595 µM); MIC90 (Pseudomonas aeruginosa [10]): 4 µg/mL (≈ 9.51 µM); MIC50 (Pseudomonas aeruginosa [11]): 0.5 µg/mL (≈ 1.19 µM); MIC90 (Pseudomonas aeruginosa [11]): 8 µg/mL (≈ 19 µM); Activity (Proteus mirabilis [12]): 100%; MIC50 (Enterobacter cloacae [13]): 0.03 µg/mL (≈ 0.0713 µM); MIC90 (Enterobacter cloacae [13]): 0.12 µg/mL (≈ 0.285 µM); MIC50 (Enterobacter cloacae [14]): 0.03 µg/mL (≈ 0.0713 µM); MIC90 (Enterobacter cloacae [14]): 0.06 µg/mL (≈ 0.143 µM); Activity (Enterobacter cloacae [15]): 99.2%; Activity (Enterobacter cloacae [16]): 99%; MIC50 (Citrobacter [17]): 0.06 µg/mL (≈ 0.143 µM); MIC90 (Citrobacter [17]): 0.06 µg/mL (≈ 0.143 µM); Activity (Serratia marcescens [18]): 98.6%; Activity (Serratia marcescens [19]): 100%; MIC50 (Pseudomonas aeruginosa [20]): 1 µg/mL (≈ 2.38 µM); MIC90 (Pseudomonas aeruginosa [20]): 16 µg/mL (≈ 38 µM); Activity (Pseudomonas aeruginosa [21]): 55.6%; MIC50 (Acinetobacter [22]): 32 µg/mL (≈ 76.1 µM); MIC90 (Acinetobacter [22]): > 32 µg/mL; Activity (Acinetobacter [23]): 73.4%; Activity (Acinetobacter [24]): 89.1%; Activity (Acinetobacter [25]): 0%; MIC50 (Staphylococcus aureus): 0.5 µg/mL (≈ 1.19 µM); MIC90 (Staphylococcus aureus): 8 µg/mL (≈ 19 µM); MIC50 (Staphylococcus; read-out: MIC50): 0.03 µg/mL (≈ 0.0713 µM); MIC90 (Staphylococcus; read-out: MIC90): 0.06 µg/mL (≈ 0.143 µM); MIC50 (Streptococcus pneumoniae): 0.03 µg/mL (≈ 0.0713 µM); MIC90 (Streptococcus pneumoniae): 0.5 µg/mL (≈ 1.19 µM); Activity (Pseudomonas aeruginosa [26]): 87.9%; Activity (Pseudomonas aeruginosa [27]): 78.4%

Which MIC50 (Enterobacteriaceae [1]) does the source give for `CC(C)(O/N=C(\C(=O)N[C@@H]1C(=O)N2C(C(=O)[O-])=C(C[n+]3ccccc3)CS[C@H]12)c1csc(N)n1)C(=O)O` [CEFTAZIDIME] here?
Its MIC50 is 0.12 µg/mL (≈ 0.22 µM).

What about the MIC90 (Enterobacteriaceae [1]) of the same compound?
The MIC90 was 0.5 µg/mL (≈ 0.915 µM).

And the MIC50 (Enterobacteriaceae [2])?
Its MIC50 is over 32 µg/mL.

What about the MIC90 (Enterobacteriaceae [2]) of the same compound?
Its MIC90 is over 32 µg/mL.

And the Activity (Enterobacteriaceae [3])?
Its Activity is 100%.

And the Activity (Enterobacteriaceae [28])?
The Activity was 0%.

What about the Activity (Enterobacteriaceae [29]) of the same compound?
Its Activity is 7.6%.

What about the Activity (Escherichia coli [4]) of the same compound?
The Activity was 98.6%.

And the Activity (Escherichia coli [30])?
The Activity was 0.5%.

What about the Activity (Escherichia coli [5]) of the same compound?
The Activity was 33.3%.

What about the Activity (Klebsiella pneumoniae [6]) of the same compound?
The Activity was 99.2%.

And the Activity (Klebsiella pneumoniae [31])?
Its Activity is 0.3%.

And the Activity (Klebsiella pneumoniae [7])?
Its Activity is 4.5%.

What about the Activity (Klebsiella pneumoniae [32]) of the same compound?
Its Activity is 95.5%.

What about the MIC50 (Pseudomonas aeruginosa [10]) of the same compound?
Its MIC50 is 2 µg/mL (≈ 3.66 µM).

And the MIC90 (Pseudomonas aeruginosa [10])?
The MIC90 was 32 µg/mL (≈ 58.5 µM).

What about the MIC50 (Pseudomonas aeruginosa [11]) of the same compound?
Its MIC50 is 2 µg/mL (≈ 3.66 µM).

And the MIC90 (Pseudomonas aeruginosa [11])?
Its MIC90 is 32 µg/mL (≈ 58.5 µM).

And the Activity (Proteus mirabilis [33])?
Its Activity is 0.3%.

And the Activity (Proteus mirabilis [12])?
Its Activity is 50%.

And the Activity (Proteus mirabilis [34])?
Its Activity is 50%.

And the MIC50 (Enterobacter cloacae [14])?
The MIC50 was 0.25 µg/mL (≈ 0.457 µM).

What about the MIC90 (Enterobacter cloacae [14]) of the same compound?
The MIC90 was 2 µg/mL (≈ 3.66 µM).

What about the Activity (Enterobacter cloacae [16]) of the same compound?
Its Activity is 1%.

What about the MIC (Citrobacter [17]) of the same compound?
Its MIC is over 32 µg/mL.

And the MIC50 (Citrobacter [17])?
The MIC50 was over 32 µg/mL.

What about the MIC90 (Citrobacter [17]) of the same compound?
Its MIC90 is over 32 µg/mL.

What about the Activity (Citrobacter [35]) of the same compound?
The Activity was 0.4%.

What about the Activity (Citrobacter [36]) of the same compound?
The Activity was 0%.

What about the Activity (Serratia marcescens [18]) of the same compound?
Its Activity is 100%.

What about the Activity (Serratia marcescens [19]) of the same compound?
The Activity was 0%.

And the Activity (Serratia marcescens [37])?
Its Activity is 0%.

What about the MIC50 (Pseudomonas aeruginosa [20]) of the same compound?
The MIC50 was 32 µg/mL (≈ 58.5 µM).

And the MIC90 (Pseudomonas aeruginosa [20])?
The MIC90 was over 32 µg/mL.

And the Activity (Pseudomonas aeruginosa [38])?
The Activity was 2.2%.

What about the Activity (Pseudomonas aeruginosa [21]) of the same compound?
Its Activity is 76.3%.

What about the Activity (Pseudomonas aeruginosa [39]) of the same compound?
Its Activity is 5.3%.

What about the MIC50 (Acinetobacter [22]) of the same compound?
Its MIC50 is over 32 µg/mL.

And the MIC90 (Acinetobacter [22])?
The MIC90 was over 32 µg/mL.

And the Activity (Acinetobacter [24])?
Its Activity is 66.8%.

And the Activity (Acinetobacter [25])?
The Activity was 15.7%.

What about the Activity (Acinetobacter [40]) of the same compound?
The Activity was 0%.

And the Activity (Acinetobacter [41])?
Its Activity is 84.3%.

And the Activity (Pseudomonas aeruginosa [26])?
Its Activity is 87.3%.

What about the Activity (Pseudomonas aeruginosa [27]) of the same compound?
Its Activity is 79.9%.

What about the Activity (Pseudomonas aeruginosa [42]) of the same compound?
The Activity was 5.8%.

And the Activity (Pseudomonas aeruginosa [43])?
Its Activity is 10.4%.

Reference: ChEMBL document CHEMBL1275550, “In vitro activity of doripenem, a carbapenem for the treatment of challenging infections caused by gram-negative bacteria, against recent clinical isolates from the United States” (2008)
